Measured values published in US20250098679A1, “HERBICIDAL PYRIDONE DERIVATIVES” (SYNGENTA CROP PROTECTION AG, priority 2021, published 2025).

Experiments:
Assay type in all cases: in vivo
Conditions in all cases: evaluated after 13 days
[1] = tested on: Amaranthus palmeri (AMAPA); test: Post-emergence Test, Amaranthus palmeri (AMAPA); parameters: key: 5=81-100%, 4=61-80%, 3=41-60%, 2=21-40%, 1=0-20% damage
Protocol: (§1) Seeds of a variety of test species are sown in standard soil in pots (Setaria faberi (SETFA), Echinochloa crus-galli (ECHCG), Zea mays (ZEAMX), Ipomoea hederacea (IPOHE), Amaranthus palmeri (AMAPA), Amaranthus retoflexus (AMARE)). After 8 days cultivation under controlled conditions in a glasshouse (at 24° C./16° C., day/night; 14 hours light; 65% humidity), the plants are sprayed with an aqueous spray solution derived from the formulation of the technical active ingredient in acetone/water (50:50) solution containing 0.5% Tween 20 (polyoxyethelyene sorbitan monolaurate, CAS RN 9005-64-5). Compounds are applied at 1000 g/ha unless otherwise stated. The test plants are then grown in a glasshouse under controlled conditions in a glasshouse (at 24° C./16° C., day/night; 14 hours light; 65% humidity) and watered twice daily. After 13 days the test is evaluated for the percentage damage caused to the plant. The biological activities are shown in the following table on a five-point scale (5=81-100%; 4=61-80%; 3=41-60%; 2=21-40%; 1=0-20%; -=not tested).

[2] = tested on: Echinochloa crus-galli (ECHCG); test: Post-emergence Test, Echinochloa crus-galli (ECHCG); parameters: key to percentage damage caused to the plant, ECHCG (five-point scale): 5=81-100%, 4=61-80%, 3=41-60%, 2=21-40%, 1=0-20% damage
Protocol: as §1

[3] = tested on: Setaria faberi (SETFA); test: Post-emergence Test, Setaria faberi (SETFA); parameters: key to percentage damage caused to the plant, SETFA (five-point scale): 5=81-100%, 4=61-80%, 3=41-60%, 2=21-40%, 1=0-20% damage
Protocol: as §1

[4] = tested on: Ipomoea hederacea (IPOHE); test: Post-emergence Test, Ipomoea hederacea (IPOHE); parameters: key to percentage damage caused to the plant, IPOHE (five-point scale): 5=81-100%, 4=61-80%, 3=41-60%, 2=21-40%, 1=0-20% damage
Protocol: as §1

[5] = tested on: Amaranthus retoflexus (AMARE); test: Post-emergence Test, Amaranthus retoflexus (AMARE); parameters: key to percentage damage caused to the plant, AMARE (five-point scale): 5=81-100%, 4=61-80%, 3=41-60%, 2=21-40%, 1=0-20% damage
Protocol: as §1

[6] = tested on: Zea mays (ZEAMX); test: Post-emergence Test, Zea mays (ZEAMX); parameters: key to percentage damage caused to the plant, ZEAMX (five-point scale): 5=81-100%, 4=61-80%, 3=41-60%, 2=21-40%, 1=0-20% damage
Protocol: as §1

CCOC(=O)c1c(-c2ccc(Cl)c(Cl)c2)n(CC)c(Cn2nccn2)cc1=O [Compound 58, ethyl 2-(3,4-dichlorophenyl)-1-ethyl-4-oxo-6-(triazol-2-ylmethyl)pyridine-3-carboxylate]
percentage damage caused to the plant, AMAPA (five-point scale) ([1]; 1000 g/ha): 0 | percentage damage caused to the plant, ECHCG (five-point scale) ([2]; 1000 g/ha): 1 (1=0-20%) | percentage damage caused to the plant, SETFA (five-point scale) ([3]; 1000 g/ha): 1 (1=0-20%) | percentage damage caused to the plant, IPOHE (five-point scale) ([4]; 1000 g/ha): 0 | percentage damage caused to the plant, AMARE (five-point scale) ([5]; 1000 g/ha): 1 (1=0-20%) | percentage damage caused to the plant, ZEAMX (five-point scale) ([6]; 1000 g/ha): 0

CCOC(=O)c1c(-c2ccc(Cl)c(Cl)c2)n(CC)c(Cn2cncn2)cc1=O [Compound 60, ethyl 2-(3,4-dichlorophenyl)-1-ethyl-4-oxo-6-(1,2,4-triazol-1-ylmethyl)pyridine-3-carboxylate]
percentage damage caused to the plant, AMAPA (five-point scale) ([1]; 1000 g/ha): 0 | percentage damage caused to the plant, ECHCG (five-point scale) ([2]; 1000 g/ha): 2 (2=21-40%) | percentage damage caused to the plant, SETFA (five-point scale) ([3]; 1000 g/ha): 1 (1=0-20%) | percentage damage caused to the plant, IPOHE (five-point scale) ([4]; 1000 g/ha): 1 (1=0-20%) | percentage damage caused to the plant, AMARE (five-point scale) ([5]; 1000 g/ha): 1 (1=0-20%) | percentage damage caused to the plant, ZEAMX (five-point scale) ([6]; 1000 g/ha): 0

CCOC(=O)c1c(-c2ccc(Cl)c(Cl)c2)n(CC)c(Cn2nccc2Cl)cc1=O [Compound 67, ethyl 6-[(5-chloropyrazolo-1-yl)methyl]-2-(3,4-dichlorophenyl)-1-ethyl-4-oxo-pyridine-3-carboxylate]
percentage damage caused to the plant, AMAPA (five-point scale) ([1]; 250 g/Ha): 1 (1=0-20%) | percentage damage caused to the plant, ECHCG (five-point scale) ([2]; 250 g/Ha): 0 | percentage damage caused to the plant, SETFA (five-point scale) ([3]; 250 g/Ha): 0 | percentage damage caused to the plant, IPOHE (five-point scale) ([4]; 250 g/Ha): 0 | percentage damage caused to the plant, AMARE (five-point scale) ([5]; 250 g/Ha): 1 (1=0-20%) | percentage damage caused to the plant, ZEAMX (five-point scale) ([6]; 250 g/Ha): 0

CCOC(=O)c1c(-c2ccc(Cl)c(Cl)c2)n(CC)c(Cn2cnc(Cl)c2Cl)cc1=O [Compound 68, ethyl 6-[(4,5-dichloroimidazol-1-yl)methyl]-2-(3,4-dichlorophenyl)-1-ethyl-4-oxo-pyridine-3-carboxylate]
percentage damage caused to the plant, AMAPA (five-point scale) ([1]; 250 g/Ha): 1 (1=0-20%) | percentage damage caused to the plant, AMAPA (five-point scale) ([1]; 1000 g/ha): 1 (1=0-20%) | percentage damage caused to the plant, ECHCG (five-point scale) ([2]; 250 g/Ha): 0 | percentage damage caused to the plant, ECHCG (five-point scale) ([2]; 1000 g/ha): 1 (1=0-20%) | percentage damage caused to the plant, SETFA (five-point scale) ([3]; 250 g/Ha): 1 (1=0-20%) | percentage damage caused to the plant, SETFA (five-point scale) ([3]; 1000 g/ha): 1 (1=0-20%) | percentage damage caused to the plant, IPOHE (five-point scale) ([4]; 250 g/Ha): 1 (1=0-20%) | percentage damage caused to the plant, IPOHE (five-point scale) ([4]; 1000 g/ha): 1 (1=0-20%) | percentage damage caused to the plant, AMARE (five-point scale) ([5]; 250 g/Ha): 1 (1=0-20%) | percentage damage caused to the plant, AMARE (five-point scale) ([5]; 1000 g/ha): 1 (1=0-20%) | percentage damage caused to the plant, ZEAMX (five-point scale) ([6]; 250 g/Ha): 1 (1=0-20%) | percentage damage caused to the plant, ZEAMX (five-point scale) ([6]; 1000 g/ha): 0

CCn1c(Cn2ncc([N+](=O)[O-])c2C)cc(=O)c(C(=O)O)c1-c1ccc(Cl)c(Cl)c1 [Compound 69, 2-(3,4-dichlorophenyl)-1-ethyl-6-[(5-methyl-4-nitro-pyrazol-1-yl)methyl]-4-oxo-pyridine-3-carboxylic acid]
percentage damage caused to the plant, AMAPA (five-point scale) ([1]; 1000 g/ha): 1 (1=0-20%) | percentage damage caused to the plant, ECHCG (five-point scale) ([2]; 1000 g/ha): 1 (1=0-20%) | percentage damage caused to the plant, SETFA (five-point scale) ([3]; 1000 g/ha): 3 (3=41-60%) | percentage damage caused to the plant, IPOHE (five-point scale) ([4]; 1000 g/ha): 1 (1=0-20%) | percentage damage caused to the plant, AMARE (five-point scale) ([5]; 1000 g/ha): 1 (1=0-20%) | percentage damage caused to the plant, ZEAMX (five-point scale) ([6]; 1000 g/ha): 2 (2=21-40%)

CCc1ncnn1Cc1cc(=O)c(C(=O)O)c(-c2ccc(Cl)c(Cl)c2)n1CC [Compound 70, 2-(3,4-dichlorophenyl)-1-ethyl-6-[(5-ethyl-1,2,4-triazol-1-yl)methyl]-4-oxo-pyridine-3-carboxylic acid]
percentage damage caused to the plant, AMAPA (five-point scale) ([1]; 1000 g/ha): 1 (1=0-20%) | percentage damage caused to the plant, ECHCG (five-point scale) ([2]; 1000 g/ha): 1 (1=0-20%) | percentage damage caused to the plant, SETFA (five-point scale) ([3]; 1000 g/ha): 2 (2=21-40%) | percentage damage caused to the plant, IPOHE (five-point scale) ([4]; 1000 g/ha): 1 (1=0-20%) | percentage damage caused to the plant, AMARE (five-point scale) ([5]; 1000 g/ha): 1 (1=0-20%) | percentage damage caused to the plant, ZEAMX (five-point scale) ([6]; 1000 g/ha): 0

CCn1c(Cn2cnc(Cl)c2)cc(=O)c(C(=O)O)c1-c1ccc(Cl)c(Cl)c1 [Compound 74, 6-[(4-chloroimidazol-1-yl)methyl]-2-(3,4-dichlorophenyl)-1-ethyl-4-oxo-pyridine-3-carboxylic acid]
percentage damage caused to the plant, AMAPA (five-point scale) ([1]; 1000 g/ha): 0 | percentage damage caused to the plant, ECHCG (five-point scale) ([2]; 1000 g/ha): 0 | percentage damage caused to the plant, SETFA (five-point scale) ([3]; 1000 g/ha): 0 | percentage damage caused to the plant, IPOHE (five-point scale) ([4]; 1000 g/ha): 0 | percentage damage caused to the plant, AMARE (five-point scale) ([5]; 1000 g/ha): 0 | percentage damage caused to the plant, ZEAMX (five-point scale) ([6]; 1000 g/ha): 1 (1=0-20%)

CCn1c(Cn2cnc(C(=O)OC)c2)cc(=O)c(C(=O)O)c1-c1ccc(Cl)c(Cl)c1 [Compound 76, 2-(3,4-dichlorophenyl)-1-ethyl-6-[(4-methoxycarbonyl-imidazol-1-yl)methyl]-4-oxo-pyridine-3-carboxylic acid]
percentage damage caused to the plant, AMAPA (five-point scale) ([1]; 1000 g/ha): 1 (1=0-20%) | percentage damage caused to the plant, ECHCG (five-point scale) ([2]; 1000 g/ha): 0 | percentage damage caused to the plant, SETFA (five-point scale) ([3]; 1000 g/ha): 1 (1=0-20%) | percentage damage caused to the plant, IPOHE (five-point scale) ([4]; 1000 g/ha): 0 | percentage damage caused to the plant, AMARE (five-point scale) ([5]; 1000 g/ha): 1 (1=0-20%) | percentage damage caused to the plant, ZEAMX (five-point scale) ([6]; 1000 g/ha): 1 (1=0-20%)

CCn1c(Cn2cnc(F)c2)cc(=O)c(C(=O)O)c1-c1ccc(Cl)c(Cl)c1 [Compound 77, 2-(3,4-dichlorophenyl)-1-ethyl-6-[(4-fluoroimidazol-1-yl)methyl]-4-oxo-pyridine-3-carboxylic acid]
percentage damage caused to the plant, AMAPA (five-point scale) ([1]; 1000 g/ha): 1 (1=0-20%) | percentage damage caused to the plant, ECHCG (five-point scale) ([2]; 1000 g/ha): 1 (1=0-20%) | percentage damage caused to the plant, SETFA (five-point scale) ([3]; 1000 g/ha): 0 | percentage damage caused to the plant, IPOHE (five-point scale) ([4]; 1000 g/ha): 0 | percentage damage caused to the plant, AMARE (five-point scale) ([5]; 1000 g/ha): 1 (1=0-20%) | percentage damage caused to the plant, ZEAMX (five-point scale) ([6]; 1000 g/ha): 1 (1=0-20%)
